Consider 1 molecule from US10519423B1, “High efficiency reprogramming of fibroblasts into cardiomyocytes” (The Regents of the University of Colorado, a body corporate, priority 2015, dated 2019).

What all share (type): cell-based, mouse
In assay [1] the test system is MEFs. The assay can be described thus: Counting of spontaneously beating cells in infected MEFs. The procedure: Fibroblasts were plated on tissue culture dishes pre-coated with SureCoat (Cellutron) at a density of ˜40 cells/mm^2 before transduction. The fibroblast growth medium was replaced with freshly made viral mixture containing polybrene (Sigma). Twenty-four hours later, fibroblasts were infected again with viral mixture containing polybrene. Twenty fours later, the viral medium was replaced with induction medium, composed of DMEM/199 (4:1) (Gibco), 10% FBS (Gemini), 5% horse serum(Gemini), antibiotics (Gibco), 1× non-essential amino acids (Gibco), 1× essential amino acids (Gibco), 1× B-27 (Gibco), 1× insulin-selenium-transferin (Gibco), 1× vitamin mixture (Gibco), and 1× sodium pyruvate (Gibco). Medium was changed every two-three days until cells were examined.
Cells in 60 mm dishes were examined under an EVOS® FL Color imaging system (Life Technologies) at 25° C. Beating cells were counted at a field with an area of 0.89 mm^2. Ten to fifteen fields in each dish were randomly chosen.

Assay [2] relates to MEFs. Description: Pro-fibrotic marker expression in infected MEFs (qPCR, Western blot, αSMA stress fiber immunostaining). Conditions: A83-01 0.5 μM, day 7. The procedure:
(§1) Cells were harvested in TRizol reagent (Ambion) for RNA isolation. RNA was extracted with the RNeasy® Plus Universal Mini Kit (Qiagen). RT-PCR was performed using the Superscript III first-strand synthesis system (Invitrogen). qPCR was performed using the SYBR® Green PCR master mix (Applied Biosystems) or StepOne™ Real-Time PCR Systems (Applied Biosystems). Primers are listed in Supplementary Table 1. Ryr2 (Mm00465877_m1) and Myh7 (Mm01319006_91) are Taqman probes (Life technologies).
Samples were placed on ice and washed with ice-cold DPBS (Gibco) twice, then ice-cold lysis buffer (150 mM NaCl, 50 mM Tris-Cl pH7.4, 1 mM EDTA, 1% Triton, Complete mini tablet (Roche), 1 mM PMSF freshly added before use) was added to the cells. Cells were scraped and transferred to a pre-chilled 1.5 Eppendorf tube and frozen in liquid N2. Before used, the lysate was thawed on ice. The lysate was passed carefully through a 25 g needle for 5 times and then centrifuge at 14,000 rpm for 15 minutes at 4° C. The supernatant was transferred to a new 1.5 ml tube. The protein concentration was measured and 20 ug of lysate for each sample was loaded to SDSPAGE. Proteins were then transferred to PVDF. The PDVF membrane was blocked in 2.5% BSA in 1×TBST for 30 mins at room temperature (RT). The primary antibody was added in blocking buffer for 60 mins at RT. Wash in 1×TBST (20 mM Tris-Cl, pH7.4; 150 mM NaCl; 0.1% Tween20) three times at RT, each for 15 mins. The Secondary antibody was added in blocking buffer for 45 mins at RT. The membrane was washed in 1 XTBST for 15 mins, 1×TBST for 5 mins, then TBS (10 mM Tris-Cl pH8, 150 mM NaCl) for 5 mins. The membrane was resolved with Super Signal® West Pico (34080) or Femto (34095) substrate (Thermo Scientfic). The primary antibodies include: Snail (Cell Signaling, 3879S, 1:1000), Slug (Cell Signaling, 9585S, 1:1000), P-Smad2 (Cell Signaling, 23108P, 1:1000), Smad2 (Cell Signaling, 5339, 1:1000), αSMA (Santa Cruz, SC-32251, 1:10000), cTn1 (Phospho Solutions, 2010-TNI, 1:1000), cTnT (Sigma, T6277, 1:1000), and GAPDH (Ambion, AM4300). The secondary antibodies include: Goat Anti-Mouse IgG (H+L) (Southern Biotech, 1031-05, 1:2000). Goat Anti-Rabbit IgG (Life Technologies, 65-6120, 1:2000). For separation of α- and β-myosin heavy chain, samples were run by modified 6% SDS-PAGE (separating acrylamide/bis ratio 1:100; resolving gel buffer pH 9.0; running gel buffer pH 8.2; β-mercaptoethanol 600 μl/l inner gel buffer). Gels were run overnight at 4° C. and stained with BioSafe Coomassie Blue protein stain.
Cells were fixed in 2% PFA for 15 min on ice then washed with DPBS (Gibco) three times at RT. The cells were permeabilized in 0.5% Triton X-100 (made in PBS) for 20 min at RT. After washing the cells with DPBS (Gibco), cells were incubated with the primary antibody against α-actinin (Sigma A7811, 1:300), Connexin 43 (Sigma, C6219, 1:500), Troponin T (Thermo Scientific MS-245-P, 1:500), α-SMA (Santa Cruz Biotechnology, SC-32251, 1:800), Myl2 (Proteintech, 10906-1-AP, 1:200), or Myl7 (Proteintech, 17283-1-AP, 1:200) in 10% FBS(Gemini) in DPBS for 1 hour at RT. Cells were wash with DPBS three times, 5 min each. Cell were incubated with the secondary antibody (Alexa Fluor 555 Molecular Probes A21422, 1:1000) and Hoechest (Molecular Probes 33342, 1:5000) for 30 mins at RT.
(Quantitative PCR measures a nucleic acid by following its amplification.)

Assay [3] concerns TTFs. The assay can be described thus: qPCR of cardiac genes in tail-tip fibroblasts. Conditions: GHMT2m-TTFs treated with A83-01 for 4 weeks. The procedure:
Hearts or skinned tails from adult C57BL6 mice were cut into small pieces with ˜1 mm diameter. The biopsies were seeded on a 10 cm culture dish and incubated with 10 mL of growth medium (DMEM/Hi glucose (Hyclone), 10% FBS (Gemini:), 1.1% Penicillin-Streptomycin (Gibco) and 1.1% GlutaMAX supplement (Gibco)) at 37° C. with 5% CO2. TTFs migrated out of the biopsies after 3 days. The media were changed every other day. Once the TTFs have reached a 70-80% confluence, the cells were harvested and stored for future use.
as §1

On to `Cc1cccc(-c2nn(C(=S)Nc3ccccc3)cc2-c2ccnc3ccccc23)n1` [A83-01], for which, in assay [1] (GHMT2m-infected MEFs treated with A83-01, by day 8), the “increase of the number of beating cells” value is given as 8 fold. Also, the “spontaneously contracting cells per cm^2” value in assay [1] (GHMT-infected MEFs treated with A83-01 (0.5 μM), by 4 weeks) is “about 4400 cells per cm^2”. Further, the “time by which cells started to beat” value in assay [1] (MEFs, GHMT2m alone, or GHMT-infected cultures treated with Y-27632 (30 μM) or A83-01 (0.5 μM)) is not above 11 days. Also, the “expression of Fn-EDA, Col1a1 and Col3a1, and formation of αSMA+ stress fibers” value in assay [2] (GHMT- and GHMT2m-infected cultures) is listed as “inhibited”. In assay [2] (MEFs), the “phosphorylation of Smad2” value is on record as “decreased”. The cardiomyocyte gene expression entry in assay [3] is “Enhanced”.
